These results are taken from patent US8329689B2 (priority 2006, dated 2012).

Where a name gives a salt, the structure may show the parent alone. Bounds are passed on as bounds.

The first series deals with virus influenza A. As to the kind of experiment: microbe, parasite or virus in culture. As to conditions: Influenza A virus, MDCK, dilution of virus 10^-3, read-out: % of inhibition of influenza A virus reproduction. The format is cell-based. Details: dose or concentration left out as unconfirmed.
As usually defined, the inhibition is the drop in the measured response relative to a control, in per cent. As for `CCOC(=O)c1c(CNc2ccncc2)n(C)c2cc(Br)c3c(c12)CN(C)CO3` [1.2(18)], the inhibition came out at 100%. Still for that read-out and setting: the result for `CCOC(=O)c1c(CN2CCCCC2)n(Cc2ccccc2)c2cc(Br)c3c(c12)CN(C)CO3` [1.2(7)] reads 100%; that for `CCOC(=O)c1c(CN2CCN(CCO)CC2)n(C)c2cc(Br)c3c(c12)CN(C)CO3` [1.2(14)], 95%; that for `CCOC(=O)c1c(CSc2cc(C)ccc2C#N)n(C)c2cc(Br)c3c(c12)CN(C)CO3` [1.2(36)], less than 50%. On the same count and under the same terms, the result for `CCOC(=O)c1c(CSc2ccccc2)n(C2CCCCC2)c2cc(Br)c3c(c12)CN(C)CO3` [1.2(41)] reads 89%; that for `CCOC(=O)c1c(CSc2nc3ccccc3s2)n(-c2ccccc2)c2cc(Br)c3c(c12)CN(C)CO3` [1.2(34)], less than 50%. On the same count and under the same terms, the result for `CCOC(=O)c1c(CSc2ccc(Cl)cc2)n(C)c2cc(Br)c3c(c12)CN(C)CO3` [1.2(49)] reads 90%; that for `CCOC(=O)c1c(CSc2ccccc2)n(C)c2cc(Br)c3c(c12)CN(C)CO3` [1.2(38)], 100%.

On to `CCOC(=O)c1c(CNc2ccccc2)n(C)c2cc(Br)c3c(c12)CN(C)CO3` [1.2(44)], for which the inhibition is 100%. For the molecule `CCOC(=O)c1c(CSc2ccccc2)n(C)c2cc(Br)c3c(c12)CN(CC)CO3` [1.2(31)], the inhibition is 100%. Take `CCOC(=O)c1c(CN2CCN(C)CC2)n(Cc2ccccc2)c2cc(Br)c3c(c12)CN(C)CO3` [1.2(6)]: the inhibition is 92%.

In the case of `CN1COc2c(Br)cc3c(c2C1)c(C(=O)OC1CCCCC1)c(CNc1ccccc1)n3C` [1.2(48)], the inhibition came to 76%. Take `CCOC(=O)c1c(CSc2ccccc2)n(C)c2cc(C#N)c(O)c(CN3CCCC(CO)C3)c12` (stereo not drawn) [1.1(11)]: the inhibition was less than 50%. For `CCCCN1COc2c(Br)cc3c(c2C1)c(C(=O)OCC)c(CSc1ccccc1)n3C` [1.2(33)], the inhibition amounted to 95%. The same measure, in the same setting: the result for `CCOC(=O)c1c(CS(=O)(=O)c2ccccc2)n(C)c2cc(Br)c3c(c12)CN(C)CO3` [1.2(42)] reads 88%.

For the molecule `CCOC(=O)c1c(CSc2ccccc2)n(C)c2cc(-c3cccnc3)c3c(c12)CN(C)CO3` [1.2.2(8)], the inhibition is 100%. As for `CCOC(=O)c1c(CSc2ccccc2)n(C)c2cc(-c3ccccc3)c(O)c(CN(C)C)c12` [1.2.1(1)], the inhibition is 96%. For `CCOC(=O)c1c(CN(C)CCO)n(C)c2cc(Br)c3c(c12)CN(C)CO3` [1.2(16)], the inhibition is 90%. As for `CCOC(=O)c1c(CNc2ccccc2)n(C)c2cc(-c3ccccc3)c3c(c12)CN(C)CO3` [1.2.3(7)], the inhibition came to 90%.

With `CCOC(=O)c1c(CSc2ccccc2)n(C)c2cc(-c3cc4cc(OC)ccc4[nH]3)c(O)c(CN(C)C)c12` [1.1.1(5)], the inhibition was found to be 60%. As for `CCOC(=O)c1c(CN2CCC(C)CC2)n(Cc2ccccc2)c2cc(Br)c3c(c12)CN(C)CO3` [1.2(12)], the inhibition worked out at 85%. `CCOC(=O)c1c(CSc2ccccc2)n(C)c2cc(-c3cc4ccccc4[nH]3)c(O)c(CN(C)C)c12` [1.1.1(4)]: the inhibition worked out at 66%. As for `CCOC(=O)c1c(CSc2ccccc2)n(C)c2cc(Br)c3c(c12)CN(Cc1ccccc1)CO3` [1.2(35)], the inhibition was 98%. `CCOC(=O)c1c(CSc2ccccc2)n(C)c2cc(-c3cccnc3)c(O)c(CN(C)C)c12` [1.2.1(5)]: the inhibition amounted to 100%. As for `CCOC(=O)c1c(CSc2nc3ccccc3[nH]2)n(-c2ccccc2)c2cc(Br)c3c(c12)CN(C)CO3` [1.2(32)], the inhibition was 65%. Take `CCOC(=O)c1c(CNc2ccc(C)cc2)n(C)c2cc(Br)c3c(c12)CN(C)CO3` [1.2(26)]: the inhibition worked out at 100%.

As to `CCOC(=O)c1c(CN2CCCCC2C)n(Cc2ccccc2)c2cc(Br)c3c(c12)CN(C)CO3` (stereo not drawn) [1.2(13)], the inhibition amounted to 77%. Still for that read-out and setting: the result for `CCOC(=O)c1c(CNc2ccccc2)n(C)c2cc(C#N)c3c(c12)CN(C)CO3` [1.2(30)] reads less than 50%.

With `CCCCC1Oc2c(Br)cc3c(c2CN1C)c(C(=O)OCC)c(CSc1ccccc1)n3C` (stereo not drawn) [1.2(37)], the inhibition came to 77%. On to `CCOC(=O)c1c(CN2CCCC2)n(C2CCCCC2)c2cc(Br)c3c(c12)CN(C)CO3` [1.2(10)], for which the inhibition was determined as 81%. Regarding `CCOC(=O)c1c(CSc2ccccc2)n(C)c2cc(-c3cccnc3)c(O)c(CN3CCCC(CO)C3)c12` (stereo not drawn) [1.2.1(23)], the inhibition was 95%. As for `CCOC(=O)c1c(CSc2ccccc2)n(C)c2cc(-c3cncnc3)c3c(c12)CN(C)CO3` [1.2.2(7)], the inhibition worked out at 88%.

Regarding `CCOC(=O)c1c(CSc2ccccc2)n(C)c2cc(-c3ccc(OC)nc3)c(O)c(CN(C)C)c12` [1.2.1(8)], the inhibition turned out to be 81%.

Regarding `CCOC(=O)c1c(CSc2ccccc2)n(C)c2cc(-c3cc4ccccc4o3)c(O)c(CN(C)C)c12` [1.1.1(3)], the inhibition came to 52%.

In the case of `CCOC(=O)c1c(CSc2ccccc2)n(C)c2cc(-c3ccc4[nH]ncc4c3)c(O)c(CN(C)C)c12` [1.1.1(6)], the inhibition is 58%.

Turning to `CCOC(=O)c1c(COc2ccccc2)n(C)c2cc(-c3cccnc3)c(O)c(CN(C)C)c12` [1.2.1(29)], the inhibition worked out at 88%. For the molecule `CCOC(=O)c1c(CSc2ccccc2)n(C)c2cc(-c3ccncc3)c3c(c12)CN(C)CO3` [1.2.2(5)], the inhibition is 100%.

As for `CCOC(=O)c1c(CNc2ccc(Cl)cc2)n(C)c2cc(Br)c3c(c12)CN(C)CO3` [1.2(45)], the inhibition was found to be 100%. As for `CCOC(=O)c1c(CSc2ccccc2)n(C)c2cc(-c3cncc4ccccc34)c(O)c(CN(C)C)c12` [1.1.1(9)], the inhibition is 88%. Same read-out and setting: the result for `CCOC(=O)c1c(CSc2ccccc2)n(C)c2cc(Br)c3c(c12)CN(C)C(c1ccccc1)O3` (stereo not drawn) [1.2(39)] reads 62%; that for `CCOC(=O)c1c(CSc2ccccc2)n(C)c2cc(-c3cncnc3)c(O)c(CN(C)C)c12` [1.1.1(7), ethyl 4-((dimethylamino)methyl)-5-hydroxy-1-methyl-2-(phenylthiomethyl)-6-(pyrimidin-5-yl)-1H-indole-3-carboxylate], 62%; that for `CCOC(=O)c1c(CSc2ccccc2)n(C)c2cc(-c3cccc(N(C)C)c3)c(O)c(CN(C)C)c12` [1.2.1(3)], 77%. In the case of `CCOC(=O)c1c(CSc2ccccc2)n(C)c2cc(-c3ccncc3)c(O)c(CN(C)C)c12` [1.2.1(6)], the inhibition is 100%. In the case of `CCOC(=O)c1c(CN2CCN(C)CC2)n(-c2ccccc2)c2ccc3c(c12)CN(C)CO3` [1.2(1)], the inhibition is less than 50%. For `CCOC(=O)c1c(CSc2ccccc2)n(C)c2cc(-c3cn[nH]c3)c(O)c(CN(C)C)c12` [1.1.1(2)], the inhibition was 63%. Same read-out and setting: the result for `CCOC(=O)c1c(CSc2cccs2)n(C)c2cc(Br)c3c(c12)CN(C)CO3` [1.2(47)] reads 100%; that for `CCOC(=O)c1c(CNc2ccccc2)n(C)c2cc(-c3ccncc3)c3c(c12)CN(C)CO3` [1.2.3(8)], 100%; that for `CCOC(=O)c1c(CN(C)C)n(-c2ccccc2)c2ccc3c(c12)CN(C)CO3` [1.2(11)], 77%. In the case of `CCOC(=O)c1c(CN2CCN(c3ccccc3)CC2)n(C2CCCCC2)c2cc(Br)c3c(c12)CN(C)CO3` [1.2(9)], the inhibition is 62%. For the molecule `CCOC(=O)c1c(CS(=O)(=O)c2ccc(Cl)cc2)n(C)c2cc(Br)c3c(c12)CN(C)CO3` [1.2(43)], the inhibition is 77%. As to `CCOC(=O)c1c(CSc2ccccc2)n(C)c2cc(-c3cccc(O)c3)c(O)c(CN(C)C)c12` [1.2.1(2)], the inhibition turned out to be 51%. As to `CCOC(=O)c1c(Cn2ccnc2C)n(C)c2cc(Br)c3c(c12)CN(C)CO3` [1.2(19)], the inhibition is 88%. Consider `CCOC(=O)c1c(CSc2ccccc2)n(C)c2cc(C#N)c3c(c12)CN(C)CO3` [1.2(27)], for which the inhibition is less than 50%. The same measure, in the same setting: the result for `COC(=O)c1c(CSc2ccccc2)n(C)c2cc(Br)c3c(c12)CN(C)CO3` [1.2(46)] reads 100%.

Still in this series, the particulars now being: dilution of virus 10^-3.
On to `Br.Br.CCOC(=O)c1c(CN2CCN(C)CC2)n(-c2ccccc2)c2ccc3c(c12)CN(C)CO3` [1.2(2)], for which the “% of inhibition of influenza A virus reproduction” value is less than 50%.

The next series concerns virus of hepatitis C strain JFH-1 (genotype 2a). As to the kind of experiment: microbe, parasite or virus in culture. The format is cell-based. As to conditions: HCV.
As to `CCOC(=O)c1c(C[S+]([O-])c2ccccc2)n(C)c2cc(-c3cccnc3)c(O)c(CN(C)C)c12.Cl.Cl` (stereo not drawn) [1.1.2(42)], the “Therapeutic index SI50 = TC50/IC50” value is more than 5. For `CCOC(=O)c1c(CN(C)C)n(C)c2cc(-c3cccnc3)c3c(c12)CN(C)CO3` [1.2.5(1c), hydrochloride], the “Therapeutic index SI50 = TC50/IC50” value was found to be 13. As for `CCOC(=O)c1c(CO)n(C)c2cc(-c3cccnc3)c(O)c(CN(C)C)c12.Cl.Cl` [1.1.2(35)], the “Therapeutic index SI50 = TC50/IC50” value is recorded as more than 16. `CCOC(=O)c1c(CN(C)C)n(C)c2cc(-c3cccnc3)c(O)c(CN3CCCC3)c12.Cl.Cl.Cl` [1.1.5(2c), ethyl 2-((dimethylamino)methyl)-5-hydroxy-1-methyl-6-(pyridin-3-yl)-4-(pyrrolidin-1-ylmethyl)-1H-indole-3-carboxylate hydrochloride]: the “Therapeutic index SI50 = TC50/IC50” value stood at 11. As for `CCOC(=O)c1c(CN(C)C)n(C)c2cc(-c3ccccc3)c(O)c(Cn3ccnc3)c12.Cl.Cl` [1.1.3(7)], the “Therapeutic index SI50 = TC50/IC50” value was more than 1.4.

The same series, now with this note: Hepatitis C virus, GETYPE2A, Huh-7.5.1; Huh7.5.1 cells, HCV JFH-1, 72 hours incubation; read-out: IC50 (IC50^HCV, antiviral activity).
By IC50 is commonly meant the concentration at which inhibition is half-maximal. In the case of `CCOC(=O)c1c(CN(C)C)n(C)c2cc(-c3cccnc3)c3c(c12)CN(C)CO3` [1.2.5(1c), hydrochloride], the half-inhibitory concentration (IC50) amounted to 6 µM.

Staying with this series, now noted: Hepatitis C virus, Huh-7.5.1; Huh7.5.1 cells, HCV JFH-1, 72 hours incubation; read-out: IC50 (IC50^HCV, antiviral activity).
On to `CCOC(=O)c1c(CN(C)C)n(C)c2cc(C#N)c3c(c12)CN(C)CO3` [1.2(29)], for which the IC50 was more than 100 µM.

`CCOC(=O)c1c(C[S+]([O-])c2ccccc2)n(C)c2cc(-c3cccnc3)c(O)c(CN(C)C)c12.Cl.Cl` (stereo not drawn) [1.1.2(42)]: the IC50 was 18 µM. On the same count and under the same terms, the result for `CCOC(=O)c1c(CO)n(C)c2cc(-c3cccnc3)c(O)c(CN(C)C)c12.Cl.Cl` [1.1.2(35)] reads 6 µM. Regarding `CCOC(=O)c1c(CN(C)C)n(C)c2cc(-c3cccnc3)c(O)c(CN3CCCC3)c12.Cl.Cl.Cl` [1.1.5(2c), ethyl 2-((dimethylamino)methyl)-5-hydroxy-1-methyl-6-(pyridin-3-yl)-4-(pyrrolidin-1-ylmethyl)-1H-indole-3-carboxylate hydrochloride], the IC50 came out at 7 µM. With `CCOC(=O)c1c(CN(C)C)n(C)c2cc(-c3ccccc3)c(O)c(Cn3ccnc3)c12.Cl.Cl` [1.1.3(7)], the IC50 came to 72 µM.

Tested on in the next series: not listed separately
As to the kind of experiment: in vitro. As to conditions: human.
As for `CCOC(=O)c1c(CN(C)C)n(C)c2cc(C#N)c3c(c12)CN(C)CO3` [1.2(29)], the CC50 is more than 100 µM.

In the case of `CCOC(=O)c1c(C[S+]([O-])c2ccccc2)n(C)c2cc(-c3cccnc3)c(O)c(CN(C)C)c12.Cl.Cl` (stereo not drawn) [1.1.2(42)], the CC50 was more than 100 µM. Still for that read-out and setting: the result for `CCOC(=O)c1c(CN(C)C)n(C)c2cc(-c3cccnc3)c3c(c12)CN(C)CO3` [1.2.5(1c), hydrochloride] reads 78 µM; that for `CCOC(=O)c1c(CO)n(C)c2cc(-c3cccnc3)c(O)c(CN(C)C)c12.Cl.Cl` [1.1.2(35)], more than 100 µM. Still for that read-out and setting: the result for `CCOC(=O)c1c(CN(C)C)n(C)c2cc(-c3cccnc3)c(O)c(CN3CCCC3)c12.Cl.Cl.Cl` [1.1.5(2c), ethyl 2-((dimethylamino)methyl)-5-hydroxy-1-methyl-6-(pyridin-3-yl)-4-(pyrrolidin-1-ylmethyl)-1H-indole-3-carboxylate hydrochloride] reads 75 µM; that for `CCOC(=O)c1c(CN(C)C)n(C)c2cc(-c3ccccc3)c(O)c(Cn3ccnc3)c12.Cl.Cl` [1.1.3(7)], more than 100 µM.
